According to patent US11208407B2, “Substituted phenyl compounds as indoleamine 2,3-dioxygenase (IDO) inhibitors” (Merck Sharp & Dohme Corp., priority 2017, dated 2021):

Key:
[1] = target: T1, IDO1 (Homo sapiens, UniProt P14902); test: IDO1 Human Whole Blood Assay; format: cell-based; set-up: Human whole blood was drawn in sodium heparin coated tubes from healthy internal donors; from tissue; host or cells: Human whole blood from healthy donors, stimulated with LPS and IFNγ; details: LPS and IFNγ 100 ng/mL, 18 h, kynurenine by LC/MS/MS
T1 sequence (P14902 whole entry): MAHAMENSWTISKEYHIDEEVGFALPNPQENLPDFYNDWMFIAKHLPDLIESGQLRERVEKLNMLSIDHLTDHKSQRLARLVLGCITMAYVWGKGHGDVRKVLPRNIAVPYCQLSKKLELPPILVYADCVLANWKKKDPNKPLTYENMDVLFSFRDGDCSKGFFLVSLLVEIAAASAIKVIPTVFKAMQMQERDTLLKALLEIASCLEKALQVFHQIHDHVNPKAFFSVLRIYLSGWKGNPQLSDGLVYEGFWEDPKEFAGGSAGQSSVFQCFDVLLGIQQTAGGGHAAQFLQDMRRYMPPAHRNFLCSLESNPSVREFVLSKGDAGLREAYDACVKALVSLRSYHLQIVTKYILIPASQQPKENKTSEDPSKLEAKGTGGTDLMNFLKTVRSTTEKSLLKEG
Procedure: IDO1 Human Whole Blood Assay
Compounds to be tested were serially diluted in ten 3-fold steps in DMSO starting from 10 mM. 3 µL of compound dilutions or DMSO alone were then dispensed from the dilution plate into a polypropylene 96-well assay plate containing 97 µL of RPMI medium using an Echo 555 acoustic liquid handler (Labcyte). LPS (lipopolysaccharide) and IFNγ was prepared in RPMI to a 10× of final conc. (1000 ng/mL), final concentration is 100 ng/mL.
Human whole blood was drawn in sodium heparin coated tubes from healthy internal donors. 240 µL of blood was transferred to each of the wells of a v-bottom 96 well plate. 30 µL of compound was transferred from intermediate dilution plate, and incubated for 15 min. 30 μL from stimulants was then transferred to blood and mixed thoroughly. Plate was covered with breathable membrane and incubated at 37° C. for overnight (18 h).
On day 2, isotope labeled standard solutions of kunurenine and tryptophan was made in water at 10× concentration and 30 µL was added to the blood at 3 µM final concentration. The assay plates were centrifuged at 300×G for 10 min with no brake to separate plasma from red blood cells. 60 µL of plasma samples was removed without disturbing red blood cells. Plasma was diluted with RPMI medium in 1:1 ratio and proteins were precipitated out with two volumes of Acetonitrile. The plates were centrifuged at 4000×G for 60 min. 20 µL of supernatant was carefully transferred to a 384 well plate containing 40 µL of 0.1% formic acid in water and analyzed by LC/MS/MS.
LC/MS/MS analyses were performed using Thermo Fisher's LX4-TSQ Quantum Ultra system. This system consists of four Agilent binary high-performance liquid chromatography (HPLC) pumps and a TSQ Quantum Ultra triple quadrupole MS/MS instrument. For each sample, 5 µL were injected onto an Atlantis T3 column (2.1 mm×150 mm, 3 µm particle size) from Waters. The mobile phase gradient pumped at 0.8 mL/min was used to elute the analytes from the column at 25° C. The elution started at 0% B increasing linearly to 25% B at 6.5 min, holding at 25% for 1 min, re-equilibrating to 10 min. Mobile phase A consisted of 0.1% formic acid in water. Mobile phase B consisted of 0.1% of formic acid in acetonitrile. Data was acquired in positive mode using a HESI interface. The operational parameters for the TSQ Quantum Ultra instrument were a spray voltage of 4000 V, capillary temperature of 380° C., vaporizer temperature 400° C., shealth gas 60 arbitrary units, Aux gas 20 arbitrary units, tube lens 85 and collision gas 1.2 mTorr. SRM (selected-reaction monitoring) chromatograms of kynurenine (Q1: 209.2>Q3:94.0) and internal standard (Q1: 215.3>Q3:98.2) were collected for 90 sec. The peak area was integrated by Xcalibur Quan software. The ratios between the kynurenine generated in the reaction and 2D6-Kynurenine spiked-in internal standard were used to generate percentage inhibition and IC50 values. Compounds were titrated and IC50's were calculated by 4 parameter sigmoidal curve fitting formula.

[2] = target: T1, IDO1; test: IDO1 Cellular Assay in HeLa Cells Stimulated with IFNγ; format: cell-based; details: IFNγ 100 ng/mL, 300 uM L-tryptophan, about 48 hours, read-out: IDO HeLa Cell Assay, IC50
Procedure: Biological Assays IDO1 Cellular Assay in HeLa Cells Stimulated with IFNγ
HeLa cells were cultured in complete HeLa culture medium (90% EMEM, 10% heat-inactivated fetal bovine serum) and expanded to about 1×10^9 cells. The cells were then collected and frozen down at 1×10^7 cells/vial in 1 mL frozen medium (90% complete HeLa culture medium, 10% DMSO).
Compounds to be tested were serially diluted in ten 3-fold steps in DMSO starting from 10 mM DMSO stocks in Echo low volume plate(s). Compound dilutions or DMSO alone were then dispensed from the dilution plate(s) into Greiner black 384-well assay plate(s) (catalog #781086, 50 nL/well) using an Echo 550 acoustic liquid handler (Labcyte).
Frozen HeLa cells were thawed and transferred into HeLa assay medium (99% complete HeLa culture medium, 1% Pen/Strep) with 20 mL medium/vial of cells. The cells were spun down at 250 g in a table top centrifuge for 5 min and suspended in same volume of HeLa assay medium. The cells were then counted and adjusted to a density of 2×10^5 cells/mL in HeLa assay medium. Sterile L-tryptophan were added to the cells with final concentration of 300 uM L-tryptophan. A small aliquot (2 mL/plate) of HeLa cells were set aside and were not treated with IFNγ, to serve as the Max-E control.
HeLa cells with and without IFNγ were dispensed to the respective wells of 384-well assay plates containing the compounds. The plates were incubated for about 48 hours at a 37° C., 5% CO2 incubator. Afterwards, 12 μL of 0.5 M methyl isonipecotate in dimethyl sulfoxide were added into each well and the plates were sealed and incubated at 37° C. without CO2 overnight. The plates were centrifuged for 1 min at 200×g. The resulting fluorescence was measured in a Spectramax plate reader (Molecular Devices) with a 400 nm excitation filter and a 510 nm emission filter.
The fluorescence intensity of each well was corrected for the background observed in wells with non-IFNγ-treated cells and was expressed as a fraction of the intensity observed in wells of IFNγ-treated cells and DMSO only. Potencies were calculated by linear least squares fit to the four parameter logistic IC50 equation.

| IC50 [1] | IC50 [2] | SMILES |
| --- | --- | --- |
| 91 nM | 1.1 nM | OCc1cc(C(F)(F)F)ncc1-c1ccc(C2(c3nc4ccc(Cl)cc4[nH]3)CCC2)cc1 [Example 52, [5-{4-[1-(6-chloro-1H-benzimidazol-2-yl)cyclobutyl]phenyl}-2-(trifluoromethyl)pyridin-4-yl]methanol] |
| 192 nM | 2.85 nM | O=C(Nc1ccc(C2(c3nc4ncccc4[nH]3)CCC2)cc1)c1cccc(Cl)c1 [Example 5, N-(4-(1-(1H-imidazo[4,5-b]pyridin-2-yl)cyclobutyl)phenyl)-3-chlorobenzamide] |
| 191 nM | 3.94 nM | OCc1cc(OC(F)F)ncc1-c1ccc(C2(c3nc4cc(Cl)ccc4[nH]3)CCC2)cc1 [Example 47, [5-{4-[1-(5-chloro-1H-benzimidazol-2-yl)cyclobutyl]phenyl}-2-(difluoromethoxy)pyridin-4-yl]methanol] |
| 169 nM | 1.48 nM | O=C(Nc1cccc(Cl)c1)c1ccc(C2(c3nc4ncc(C(F)(F)F)cc4[nH]3)CCC2)cc1 [Example 27, N-(3-chlorophenyl)-4-(1-(6-(trifluoromethyl)-1H-imidazo[4,5-b]pyridin-2-yl)cyclobutyl)benzamide] |
| 1660 nM | 2.22 nM | Cc1cc(OC(F)F)ncc1-c1ccc(C2(c3nc4cc(C(F)(F)F)cnc4[nH]3)COC2)cc1 [Example 44, 2-(3-{4-[6-(difluoromethoxy)-4-methylpyridin-3-yl]phenyl}oxetan-3-yl)-6-(trifluoromethyl)-3H-imidazo[4,5-b]pyridine] |
